From patent publication EP4483954A1 (Masarykova Univerzita, priority 2023, dated 2025)

Experiments:
Assay type in all cases: biochemical
Haspin (h) = biological target: T1, Haspin (h) (Homo sapiens, UniProt Q8TF76); test: radiometric kinase assay (KinaseProfiler, Eurofins), Haspin; details: in vitro radiometric kinase assay, tested at 1 nM to 10 000 nM, no pre-incubation; read-out: inhibitory activities (IC50 values) Haspin
T1 construct: purchased Eurofins (KinaseProfiler)
T1 sequence (Q8TF76 1-798): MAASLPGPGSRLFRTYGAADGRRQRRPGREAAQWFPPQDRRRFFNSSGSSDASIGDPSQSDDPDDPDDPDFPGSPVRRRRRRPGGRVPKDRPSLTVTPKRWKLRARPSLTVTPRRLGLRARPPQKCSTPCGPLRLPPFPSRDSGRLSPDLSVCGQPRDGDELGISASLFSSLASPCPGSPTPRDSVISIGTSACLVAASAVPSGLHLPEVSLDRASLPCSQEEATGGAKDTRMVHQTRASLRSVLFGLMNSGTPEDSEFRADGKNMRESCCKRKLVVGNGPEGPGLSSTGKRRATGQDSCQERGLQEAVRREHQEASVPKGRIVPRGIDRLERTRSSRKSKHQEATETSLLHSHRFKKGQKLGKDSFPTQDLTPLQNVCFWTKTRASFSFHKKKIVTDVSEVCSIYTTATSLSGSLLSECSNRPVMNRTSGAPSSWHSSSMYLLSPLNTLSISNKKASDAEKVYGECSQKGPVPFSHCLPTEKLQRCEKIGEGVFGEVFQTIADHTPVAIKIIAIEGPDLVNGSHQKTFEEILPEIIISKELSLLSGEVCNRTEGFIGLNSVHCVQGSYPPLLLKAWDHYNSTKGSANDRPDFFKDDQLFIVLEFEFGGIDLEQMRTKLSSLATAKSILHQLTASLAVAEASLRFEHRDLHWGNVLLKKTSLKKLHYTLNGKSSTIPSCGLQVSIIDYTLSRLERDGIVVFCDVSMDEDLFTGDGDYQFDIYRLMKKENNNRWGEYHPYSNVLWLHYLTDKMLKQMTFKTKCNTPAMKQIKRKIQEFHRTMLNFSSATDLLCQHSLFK
Procedure: (§1) The compounds were profiled in the radiometric assays (KinaseProfiler, Eurofins).
(§2) Briefly, kinases were diluted in the buffer shown below prior to addition to the reaction mix: • CDKL3, TAF1L: 20 mM Tris/HCl pH 8.5, 0.2 mM EDTA, 0.1% β-mercaptoethanol, 0.01% Brij-35, 5% glycerol, 1 mg/ml BSA; • Haspin: 15 mM MOPS, 0.75 mM EDTA, 0.0075% Brij-35, 3.75% Glycerol, 150 mM NaCl, 0.1% β-mercaptoethanol, 1 mg/mLBSA; • CDKL4, CLK2, PIM1, TRB2: […], 1 mM EDTA, 0.01% Brij-35, 5% Glycerol, 0.1% β-mercaptoethanol, 1 mg/mL BSA.
(§3) All compounds were prepared to 50x final assay concentration in 100% DMSO. This working stock of the compound was added to the assay well as the first component in the reaction, followed by the remaining components as detailed in the general assay protocols below. There was no pre-incubation step between the compound and the kinase prior to initiation of the reaction.
Haspin (h) was incubated with 8 mM MOPS pH 7.0, 0.2 mM EDTA, 500 µM RARTLSFAEPG (SEQ ID NO. 3), 10 mM magnesium acetate and γ-^33P-ATP (specific activity and concentration as required). The reaction was initiated by the addition of the Mg/ATP mix. After incubation for 40 minutes at room temperature, the reaction was stopped by the addition of phosphoric acid to a concentration of 0.5%. An aliquot of the reaction was then spotted onto a filter and washed four times for 4 minutes in 0.425% phosphoric acid and once in methanol prior to drying and scintillation counting.
(§4) Kinase activity data were expressed as the percent remaining kinase activity in tested samples compared to the vehicle (DMSO) reactions. The compounds were tested at the following concentrations: 1 nM, 3 nM, 10 nM, 30 nM, 100 nM, 300 nM, 1000 nM, 3000 nM, and 10 000 nM; IC50 values and curve fits were then obtained.

TRB2(h) = biological target: T2, TRB2(h) (Homo sapiens, UniProt Q92519); test: radiometric kinase assay (KinaseProfiler, Eurofins), TRB2; details: in vitro radiometric kinase assay, tested at 1 nM to 10 000 nM, no pre-incubation; read-out: inhibitory activities (IC50 values) TRB2
T2 construct: purchased Eurofins (KinaseProfiler)
T2 sequence (Q92519 1-343): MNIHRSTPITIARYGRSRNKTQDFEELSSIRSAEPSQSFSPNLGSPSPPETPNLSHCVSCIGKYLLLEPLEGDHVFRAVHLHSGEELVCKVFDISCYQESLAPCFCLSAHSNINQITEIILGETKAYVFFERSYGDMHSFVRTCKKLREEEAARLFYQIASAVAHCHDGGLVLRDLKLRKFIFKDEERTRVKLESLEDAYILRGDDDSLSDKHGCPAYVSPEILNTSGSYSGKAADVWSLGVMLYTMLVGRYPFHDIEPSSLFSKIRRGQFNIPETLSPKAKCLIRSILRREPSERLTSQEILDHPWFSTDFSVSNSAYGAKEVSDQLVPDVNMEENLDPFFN
Procedure: as §1, §2, §3
(§5) TRB2(h) was incubated with 8 mM MOPS pH 7.0, 0.2 mM EDTA, 250 µM RRRFRPASPLRGPPK (SEQ ID NO. 1), 10 mM magnesium acetate and γ-^33P-ATP (specific activity and concentration as required). The reaction was initiated by the addition of the Mg/ATP mix. After incubation for 120 minutes at room temperature, the reaction was stopped by the addition of phosphoric acid to a concentration of 0.5%. An aliquot of the stopped reaction was spotted onto a filter and washed four times for 4 minutes in 0.425% phosphoric acid and once in methanol prior to drying and scintillation counting.
as §4

CDKL3(h) = biological target: T3, CDKL3(h) (Homo sapiens, UniProt Q8IVW4); test: radiometric kinase assay (KinaseProfiler, Eurofins), CDKL3; details: in vitro radiometric kinase assay, tested at 1 nM to 10 000 nM, no pre-incubation; read-out: inhibitory activities (IC50 values) CDKL3
T3 construct: purchased Eurofins (KinaseProfiler)
Procedure: as §1, §2, §3
as §5, with “CDKL3(h)” for “TRB2(h)”
as §4

T3 sequence (Q8IVW4 whole entry): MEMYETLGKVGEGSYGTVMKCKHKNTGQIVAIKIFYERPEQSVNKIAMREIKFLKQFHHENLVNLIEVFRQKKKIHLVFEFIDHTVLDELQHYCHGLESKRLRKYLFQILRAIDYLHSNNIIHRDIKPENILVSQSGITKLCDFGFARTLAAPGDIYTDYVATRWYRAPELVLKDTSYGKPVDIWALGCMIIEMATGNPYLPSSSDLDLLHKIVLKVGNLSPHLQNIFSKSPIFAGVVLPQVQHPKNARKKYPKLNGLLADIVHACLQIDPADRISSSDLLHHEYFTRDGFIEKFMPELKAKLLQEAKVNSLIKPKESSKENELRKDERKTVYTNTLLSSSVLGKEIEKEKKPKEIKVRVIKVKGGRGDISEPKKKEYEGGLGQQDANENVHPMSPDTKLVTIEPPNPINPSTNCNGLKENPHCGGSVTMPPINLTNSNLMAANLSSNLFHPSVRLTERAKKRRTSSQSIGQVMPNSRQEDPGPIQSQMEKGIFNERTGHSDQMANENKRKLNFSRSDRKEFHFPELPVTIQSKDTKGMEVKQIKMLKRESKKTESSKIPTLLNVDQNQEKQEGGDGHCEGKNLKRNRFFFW

IC50 (Haspin (h)) [nM] | IC50 (TRB2(h)) [nM] | IC50 (CDKL3(h)) [nM] | Structure (SMILES)
3000 to 10000 | 3000 to 10000 | 3000 to 10000 | c1ccc(-c2csc3ccc(-c4cnoc4)nc23)cc1 [Preparative Example 124, 4-(3-phenylthieno[3,2-b]pyridin-5-yl)isoxazole]
20 to 99 | 500 to 3000 | 500 to 3000 | Cn1cncc1-c1ccc2scc(-c3ccncc3)c2n1 [Preparative Example 91, 5-(1-methyl-1H-imidazol-5-yl)-3-(pyridin-4-yl)thieno[3,2-b]pyridine]
500 to 3000 | 500 to 3000 | 500 to 3000 | Cn1ncc(-c2ccc3scc(-c4ccncc4)c3n2)n1 [Preparative Example 94, 5-(2-methyl-2H-1,2,3-triazol-4-yl)-3-(pyridin-4-yl)thieno[3,2-b]pyridine]
100 to 499 | 500 to 3000 | 100 to 499 | Cn1cc(-c2ccc3scc(-c4cnn(C)c4)c3n2)cn1 [Preparative Example 63, 3,5-bis(1-methyl-1H-pyrazol-4-yl)thieno[3,2-b]pyridine]
3000 to 10000 | 3000 to 10000 | 3000 to 10000 | Fc1cc(-c2ccc3scc(-c4ccccc4)c3n2)cc(F)c1F [Preparative Example 122, 3-phenyl-5-(3,4,5-trifluorophenyl)thieno[3,2-b]pyridine]
500 to 3000 | 500 to 3000 | 500 to 3000 | Cc1cc(-c2cnn(C)c2)nc2c(-c3ccncc3)csc12 [Preparative Example 157, 7-methyl-5-(1-methyl-1H-pyrazol-4-yl)-3-(pyridin-4-yl)thieno[3,2-b]pyridine]
20 to 99 | 500 to 3000 | 100 to 499 | Cn1cc(-c2ccc3scc(-c4ccncc4)c3n2)cn1 [Preparative Example 13, 5-(1-methyl-1H-pyrazol-4-yl)-3-(pyridin-4-yl)thieno[3,2-b]pyridine]
100 to 499 | 500 to 3000 | 100 to 499 | Cn1cc(-c2ccc3scc(-c4ccccc4)c3n2)cn1 [Preparative Example 2, 5-(1-methyl-1H-pyrazol-4-yl)-3-phenylthieno[3,2-b]pyridine]
100 to 499 | 500 to 3000 | 500 to 3000 | Cn1cc(-c2ccc3scc(-c4ccnnc4)c3n2)cn1 [Preparative Example 40, 5-(1-methyl-1H-pyrazol-4-yl)-3-(pyridazin-4-yl)thieno[3,2-b]-pyridine]
500 to 3000 | 100 to 499 | 100 to 499 | Cn1cc(-c2cc(Cl)c3scc(-c4ccncc4)c3n2)cn1 [Preparative Example 162, 7-chloro-5-(1-methyl-1H-pyrazol-4-yl)-3-(pyridin-4-yl)thieno[3,2-b]pyridine]
20 to 99 | 20 to 99 | 20 to 99 | c1cc(-c2csc3ccc(Nc4cc[nH]n4)nc23)ccn1 [Preparative Example 101, N-(1H-pyrazol-3-yl)-3-(pyridin-4-yl)thieno[3,2-b]pyridin-5-amine]
3000 to 10000 | 3000 to 10000 | 3000 to 10000 | c1ccc(-c2csc3ccc(-c4ccoc4)nc23)cc1 [Preparative Example 123, 5-(furan-3-yl)-3-phenylthieno[3,2-b]pyridine]
500 to 3000 | 500 to 3000 | 500 to 3000 | Cc1cc2scc(-c3ccncc3)c2nc1-c1cnn(C)c1 [Preparative Example 150, 6-methyl-5-(1-methyl-1H-pyrazol-4-yl)-3-(pyridin-4-yl)thieno[3,2-b]pyridine]
500 to 3000 | 500 to 3000 | 100 to 499 | Cn1cc(-c2ccc3scc(-c4cccnc4)c3n2)cn1 [Preparative Example 11, 5-(1-methyl-1H-pyrazol-4-yl)-3-(pyridin-3-yl)thieno[3,2-b]pyridine]
100 to 499 | 500 to 3000 | 3000 to 10000 | Cn1cc(-c2csc3ccc(Oc4ccccc4)nc23)cn1 [Preparative Example 139, 3-(1-methyl-1H-pyrazol-4-yl)-5-phenoxythieno[3,2-b]pyridine]
20 to 99 | 100 to 499 | 100 to 499 | Cn1ccc(Nc2ccc3scc(-c4ccncc4)c3n2)n1 [Preparative Example 99, N-(1-methyl-1H-pyrazol-3-yl)-3-(pyridin-4-yl)thieno[3,2-b]pyridin-5-amine]
20 to 99 | 100 to 499 | 100 to 499 | Cn1cc(-c2ccc3scc(-c4cncs4)c3n2)cn1 [Preparative Example 69, 5-(1-methyl-1H-pyrazol-4-yl)-3-(thiazol-5-yl)thieno[3,2-b]pyridine]
100 to 499 | 500 to 3000 | 500 to 3000 | Cc1cc(-c2csc3ccc(-c4cnn(C)c4)nc23)cc(C)n1 [Preparative Example 30, 3-(2,6-dimethylpyridin-4-yl)-5-(1-methyl-1H-pyrazol-4-yl)thieno-[3,2-b]pyridine]
500 to 3000 | 500 to 3000 | 500 to 3000 | Cn1nccc1-c1ccc2scc(-c3ccncc3)c2n1 [Preparative Example 90, 5-(1-methyl-1H-pyrazol-5-yl)-3-(pyridin-4-yl)thieno[3,2-b]pyridine]
100 to 499 | 100 to 499 | 100 to 499 | Cc1cc(-c2csc3ccc(-c4cnn(C)c4)nc23)ccn1 [Preparative Example 15, 5-(1-methyl-1H-pyrazol-4-yl)-3-(2-methylpyridin-4-yl)-thieno[3,2-b]pyridine]
100 to 499 | 500 to 3000 | 500 to 3000 | COc1cc(-c2ccn(C)n2)nc2c(-c3ccncc3)csc12 [Preparative Example 165, 7-methoxy-5-(1-methyl-1H-pyrazol-3-yl)-3-(pyridin-4-yl)thieno[3,2-b]pyridine]
500 to 3000 | 3000 to 10000 | 500 to 3000 | Cn1cc(-c2ccc3scc(-c4ccncc4C#N)c3n2)cn1 [Preparative Example 34, 4-(5-(1-methyl-1H-pyrazol-4-yl)thieno[3,2-b]pyridin-3-yl)nicotino-nitrile]
